Experiment [1] has as its system A549 (lung carcinoma) cells. In words: Cell Titer Glo cell viability assay, A549. It is filed as cell-based. As to conditions: Homo sapiens, A549, 48 h, 25-300 µM, triplicate, means. Here is the method:
(§1) To determine the effect of N-acyl hydrazones and 2,5 substituted 1,3,4-oxadiazole derivatives, a dose-response curve was produced for each and every molecule based on the viability of A549 (lung carcinoma), PC-3 (prostate adenocarcinoma), and MDA-MB-231(breast adenocarcinoma) cancerous cell lines by using the Cell Titer Glo assay. The MRC-5 (lung fibroblast) cell line was used as the non-cancerous control group. For 48 h, the cytotoxic effects of novel derivatives on all of the cell lines were investigated in a dose-dependent manner.
(§2) In this study, four adherent cell lines were used: three from different cancer types and one from a regular fibroblast. The cancerous cells were human breast carcinoma (MDA-MB-231, ATCC code: HTB-26), human prostatic carcinoma (PC-3, ATCC code: CRL-1435), and human lung cancer epithelial cells (A549, ATCC code: CCL-185), while the fibroblasts in the control group were human fetal lung (MRC-5, ATCC code: CCL-171) cells. All cells were checked every few weeks for various sources of contamination.
(§3) […], MRC-5, and PC-3 cell lines were cultured in T75 flasks with high glucose DMEM medium (Pan Biotech, Aidenbach, Germany), and A549 cells were cultured with RPMI-1640 (Pan Biotech) containing 10% fetal bovine serum (Gibco, Waltham, MA, USA), 1% penicillin-streptomycin (Gibco), and 1% L-glutamine (Gibco) at 37 °C with 5% CO2. All the cells were removed from the flask with Trypsin/EDTA 0.25% (Gibco) when they reached 80% density.
(§4) To test the effect of different doses on cells, all types of cells were seeded into 96-well plates at a density of eight thousand cells in 100 µL volume per well. Cells were incubated at 37 °C with 5% CO2 for […]. After 24 h in the incubator, the medium on top of each well was discharged. All of the cells were treated with 25, 50, 100, 200, or 300 µM of fifteen N-acyl hydrazones and twelve 2,5-substituted 1,3,4-oxadiazole in a dose-increasing manner. Molecules were studied in triplicate for each concentration. To assess the viability of non-treated cells, a control group was placed in the setup with only cells and DMSO control treatments without any candidate molecules introduced. Plates were incubated for 48 h, and Cell Titer Glo reagent (Promega) was added on top of each well. Cells were then evaluated in terms of viability with the Cell Titer-Glo Luminescent Cell Viability Assay. Luminescence signals were detected with the SpectraMax i3x Multimode Detection Platform to obtain the cell viability percentages.
(In general: ATP-based viability assays read luminescence as a measure of living cells.)

Experiment [2] deals with MDA-MB-231 (breast adenocarcinoma) cells. In words: Cell Titer Glo cell viability assay, MDA-MB-231. The experiment is classed as cell-based, human. As to conditions: MDA-MB-231, 48 h, 25-300 µM, triplicate, means. Here is the method: as §1, §2, §3, §4
Experiment [3] concerns PC-3 (prostate adenocarcinoma) cells. The experiment in a line: Cell Titer Glo cell viability assay, PC-3. The experiment is classed as cell-based, human. As to conditions: PC-3, 48 h, 25-300 µM, triplicate, means. Here is the method: as §1, §2, §3, §4
Experiment [4] concerns MRC-5 (lung fibroblast) cells. In words: Cell Titer Glo cell viability assay, MRC-5 non-cancerous control. The experiment is classed as cell-based. The following applies: Homo sapiens, MRC5, MRC-5 non-cancerous fibroblasts, 48 h, 25-300 µM, triplicate, means. Here is the method:
as §1, §2, §3, §4

The subject of another experiment is A-549 cells. The experiment in a line: Scratch assay (cell migration), A549. It is filed as cell-based, human. The following applies: 55 µM 1d, 15 µM 1e, 15 µM 2a, 0, 24, 48 h. Here is the method:
(§5) The dosages for MDA-MB-231 were 40 µM for 1d, 120 µM for 1e, and 30 µM for 2a. The dosages for A-549 were 55 µM for 1d, 15 µM for 1e, and 15 µM for 2a. Three photos were taken: one immediately after the application, one 24 h later, and one 48 h later. The images of each time stamp for all three molecules can be seen in Figure 4 for the A549 cell line and Figure 5 for the MDA-MB-231 cell line.
(§6) To make comparisons, each application was performed in triplicate for all three molecules; the averages and standard deviations were calculated, and the p values were calculated by considering the sample sizes.
(§7) MDA-MB-231 and A-549 cells were seeded for the scratch assay. A total of 100.000 cells were cultured in 1.5 mL complete medium per well on a 6-well plate, as detailed above. The 6-well plates were then incubated for 24 h at 37 °C. After 24 h, accumulated cells were scraped out with the tip of a 200 µL pipette. After discarding the media on top of the cells, the cells were treated for 48 h with three molecules: 1d, 1e, and 2a.
(§8) The dosages for the MDA-MB-231 cell line were 40 µM for 1d, 120 µM for 1e, and 30 µM for 2a. The dosages for the A-549 cell line were 55 µM for 1d, 15 µM for 1e, and 15 µM for 2a.
(§9) The cell states were evaluated under the microscope, and markings were made to obtain photos from the same location during the follow-up. Images of the determined reference points were captured under the microscope immediately after treatment, 24 h later, and 48 h later.

In the next experiment the test system is MDA-MB-231 cells. In words: Scratch assay (cell migration), MDA-MB-231. It is filed as cell-based, human. The following applies: 40 µM 1d, 120 µM 1e, 30 µM 2a, 0, 24, 48 h. Here is the method:
as §5, §6, §7, §8, §9

Molecules are shown by their SMILES.

As usually defined, the IC50 is the point on the concentration scale where inhibition reaches its midpoint.

As to `N#Cc1ccc(Oc2ccccc2/C=N/NC(=O)c2ccc(Cl)cc2)cc1` [1g], the IC50 in experiment [1] is 31.8 µM; in experiment [2] (Homo sapiens), 45.1 µM; in experiment [3] (Homo sapiens, 48 h), 66.5 µM; in experiment [4], 62.8 µM.
Consider `N#Cc1ccc(Oc2ccccc2-c2nnc(-c3cccnc3)o2)cc1` [2h], for which the IC50 in experiment [1] was determined as 78.6 µM; in experiment [2] (Homo sapiens), 38.2 µM; in experiment [3] (Homo sapiens, 48 h), 78.2 µM; in experiment [4], 23.1 µM.
The matching figures for `N#Cc1ccc(Oc2ccccc2/C=N/NC(=O)c2cccnc2)cc1` [1h]: 73 µM, 65.8 µM, 78.3 µM and 66.9 µM.
`O=C(N/N=C/c1ccccc1Oc1ccc(Cl)cc1)c1cccnc1` [1m]: the IC50 in experiment [1] is 71.8 µM; in experiment [2] (Homo sapiens), 55.5 µM; in experiment [3] (Homo sapiens, 48 h), 38.1 µM; in experiment [4] it was 37.9 µM.
The like results for `O=C(N/N=C/c1ccccc1Oc1ccccc1)c1cccnc1` [1c] were, in that order, 208 µM, 50.8 µM, 86 µM and 43.5 µM.
In the case of `Clc1ccc(Oc2ccccc2-c2nnc(-c3cccnc3)o2)cc1` [2m], the IC50 in experiment [1] came to 137 µM; in experiment [2] (Homo sapiens) it was 108 µM; in experiment [3] (Homo sapiens, 48 h) it was 124 µM; in experiment [4], 124 µM.
For `Cc1nnsc1C(=O)N/N=C/c1ccccc1Oc1ccc(C#N)cc1` [1j], the IC50 turned out to be 26.6 µM in experiment [1]; 25.9 µM in experiment [2] (Homo sapiens); 18.4 µM in experiment [3] (Homo sapiens, 48 h); 37.1 µM in experiment [4].
As to `Cc1nnsc1C(=O)N/N=C/c1ccccc1Oc1ccccc1` [1e], the IC50 in experiment [1] was 13.4 µM; in experiment [2] (Homo sapiens) it was 108 µM; in experiment [3] (Homo sapiens, 48 h) it was 18.1 µM; in experiment [4], 87 µM. Further, the “Antimetastatic effect / wound healing rate, scratch assay” value in the experiment with A-549 cells and in the experiment on MDA-MB-231 cells was “did not show a significant antimetastatic effect” each time.
On to `Clc1ccc(-c2nnc(-c3ccccc3Oc3ccccc3)o2)cc1` [2b], for which the IC50 in experiment [1] was determined as 152 µM; in experiment [2] (Homo sapiens) it was 46.9 µM; in experiment [3] (Homo sapiens, 48 h), 82.2 µM; in experiment [4], 36 µM.
For `O=C(N/N=C/c1ccccc1Oc1ccc(Cl)cc1)c1ccco1` [1n], the IC50 in experiment [1] was determined as 39.4 µM; in experiment [2] (Homo sapiens), 37.9 µM; in experiment [3] (Homo sapiens, 48 h), 30.4 µM; in experiment [4], 50.6 µM.
The like results for `c1ccc(Oc2ccccc2-c2nnc(-c3ccco3)o2)cc1` [2d] were, in that order, 102 µM, 78.6 µM, 54.3 µM and 40.1 µM.
The like results for `Clc1ccc(Oc2ccccc2-c2nnc(-c3ccc(Cl)cc3)o2)cc1` [2l] were, in that order, 36.3 µM, 22.7 µM, 38.4 µM and 51.9 µM.
With `N#Cc1ccc(Oc2ccccc2/C=N/NC(=O)c2ccccc2)cc1` [1f], the IC50 came to 36.9 µM in experiment [1]; 77.2 µM in experiment [2] (Homo sapiens); 65.9 µM in experiment [3] (Homo sapiens, 48 h); 56.8 µM in experiment [4].
As to `c1ccc(Oc2ccccc2-c2nnc(-c3ccccc3)o2)cc1` [2a], the IC50 in experiment [1] is 29.3 µM; in experiment [2] (Homo sapiens), 24 µM; in experiment [3] (Homo sapiens, 48 h) it was 66 µM; in experiment [4], 74.5 µM. For the same compound, the “Antimetastatic effect / wound healing rate, scratch assay” value in the experiment with A-549 cells and in the experiment with MDA-MB-231 cells was “did not show a significant antimetastatic effect” each time.
Consider `N#Cc1ccc(Oc2ccccc2-c2nnc(-c3ccccc3)o2)cc1` [2f], for which the IC50 was determined as 45.8 µM in experiment [1]; 32.7 µM in experiment [2] (Homo sapiens); 34.2 µM in experiment [3] (Homo sapiens, 48 h); 141 µM in experiment [4].
On to `O=C(N/N=C/c1ccccc1Oc1ccc(Cl)cc1)c1ccccc1` [1k], for which the IC50 in experiment [1] was 122 µM; in experiment [2] (Homo sapiens) it was 32.7 µM; in experiment [3] (Homo sapiens, 48 h), 46.4 µM; in experiment [4], 66.9 µM.
In the case of `O=C(N/N=C/c1ccccc1Oc1ccccc1)c1ccccc1` [1a], the IC50 in experiment [1] was 28.7 µM; in experiment [2] (Homo sapiens), 53 µM; in experiment [3] (Homo sapiens, 48 h), 47.8 µM; in experiment [4], 16.9 µM.
In the case of `O=C(N/N=C/c1ccccc1Oc1ccccc1)c1ccc(Cl)cc1` [1b], the IC50 is 72.8 µM in experiment [1]; 138 µM in experiment [2] (Homo sapiens); 25.3 µM in experiment [3] (Homo sapiens, 48 h); 24.4 µM in experiment [4].
Consider `N#Cc1ccc(Oc2ccccc2-c2nnc(-c3ccc(Cl)cc3)o2)cc1` [2g], for which the IC50 in experiment [1] was 64.8 µM; in experiment [2] (Homo sapiens), 55.7 µM; in experiment [3] (Homo sapiens, 48 h) it was 127 µM; in experiment [4], 16 µM.
For the compound `Clc1ccc(Oc2ccccc2-c2nnc(-c3ccco3)o2)cc1` [2n], the IC50 in experiment [1] was 28.8 µM; in experiment [2] (Homo sapiens), 30.4 µM; in experiment [3] (Homo sapiens, 48 h), 25.6 µM; in experiment [4] it was 35.6 µM.
The like results for `Cc1nnsc1C(=O)N/N=C/c1ccccc1Oc1ccc(Cl)cc1` [1o] were, in that order, 89.7 µM, 100 µM, 27 µM and 7.78 µM.
Regarding `c1ccc(Oc2ccccc2-c2nnc(-c3cccnc3)o2)cc1` [2c], the IC50 is 109 µM in experiment [1]; 42.6 µM in experiment [2] (Homo sapiens); 121 µM in experiment [3] (Homo sapiens, 48 h); 12.8 µM in experiment [4].
As for `O=C(N/N=C/c1ccccc1Oc1ccccc1)c1ccco1` [1d], the IC50 turned out to be 49.8 µM in experiment [1]; 31.5 µM in experiment [2] (Homo sapiens); 31.5 µM in experiment [2]; 9.39 µM in experiment [3] (Homo sapiens, 48 h); 9.39 µM in experiment [3]; 44.7 µM in experiment [4]. The “Antimetastatic effect / wound healing rate, scratch assay” value in the experiment with A-549 cells and with MDA-MB-231 cells was “did not show a significant antimetastatic effect” throughout.
For the compound `N#Cc1ccc(Oc2ccccc2-c2nnc(-c3ccco3)o2)cc1` [2i], the IC50 was 72.9 µM in experiment [1]; 23.1 µM in experiment [2] (Homo sapiens); 41.4 µM in experiment [3] (Homo sapiens, 48 h); 23.1 µM in experiment [4].
On to `Clc1ccc(Oc2ccccc2-c2nnc(-c3ccccc3)o2)cc1` [2k], for which the IC50 in experiment [1] is 90 µM; in experiment [2] (Homo sapiens), 79.2 µM; in experiment [3] (Homo sapiens, 48 h), 65.8 µM; in experiment [4] it was 58.3 µM.
In the case of `O=C(N/N=C/c1ccccc1Oc1ccc(Cl)cc1)c1ccc(Cl)cc1` [1l], the IC50 was found to be 39.4 µM in experiment [1]; 77.7 µM in experiment [2] (Homo sapiens); 30.2 µM in experiment [3] (Homo sapiens, 48 h); 14.6 µM in experiment [4].
The like results for `N#Cc1ccc(Oc2ccccc2/C=N/NC(=O)c2ccco2)cc1` [1i] were, in that order, 208 µM, 20.7 µM, 84.6 µM and 31.7 µM.
